Data taken from patent US9884863B2, “STAT3 inhibitor” (Board of Regents, The University of Texas System, priority 2013, dated 2018).

Assays:
MDA-MB-231 cells = assay: Apoptosis assay (annexin V, flow cytometry); assay type: cell-based, human; details: MDA-MB-231
Procedure: Cell Cycle Assay and Apoptosis Assay: Cell cycle and apoptosis kits (#MCH100106 and #MCH100105, Millipore, Mass.) were used. […] 24 and 48 h after drug treatment, both adherent and floating cells were collected, washed once with PBS and fixed in cold ethanol for at least 4 h before cell cycle analysis. The fixed cells were then washed twice with PBS and resuspended in 200 μL cell cycle detection reagent, incubated for 30 minutes in dark at room temperature. Cell cycle distribution was measured by the Muse Cell Analyzer with Muse™ Cell Cycle. Similarly, MDA-MB-231 cells with the same treatments were prepared for apoptosis assay. After washing with PBS, resuspended cells were incubated with 100 μL PBS containing 1% BSA and 100 μL Annexin V and dead cell detection reagent in dark for 20 minutes at room temperature. Apoptosis was measured immediately using the Muse Cell Analyzer with the Muse™ Apoptosis Program.

[1] = tested on: STAT family, STAT3-dependent genes and JAKs in MDA-MB-231 cells; assay: Western blot analysis, MDA-MB-231 cells; assay type: cell-based, human
Procedure: Blocking STAT3 signaling in many different tumor cells leads to induce growth arrest and apoptosis (Turkson, J. et al., 2000; Bromberg, J., 2002; Zhang, X. et al., 2012).
Western Blot Analysis. Protein levels were determined by Western blot using the previously described methods (Shen, Q. et al., 2008). Total cell lysates were prepared from MDA-MB-231 cells. Protein concentrations were measured using the BCA Protein Assay Reagent (Pierce, Rockford, Ill., USA). Equal amounts of total cellular protein extract (40 μg) were resuspended in denaturing sample loading buffer (0.5 M Tris-HCl, pH 6.8, 10% SDS, 0.1% bromophenol blue, and 20% glycerol), separated by electrophoresis on a 10% polyacrylamide SDS-PAGE gel and then electrophoretically transferred to a nitrocellulose membrane (Thermo Scientific, Ill., USA) at 100 Volts for 1 h at 4° C. The membrane was then incubated in a blocking solution containing 5% non-fat milk and 1% Tween 20 in TBS for 1 h. The membrane was then incubated with antibodies specific for: phospho-STAT3-pY705 (1:3000, Epitomics, #2236-1), STAT3 (1:2000, Cell Signaling, #4904), Caspase-3-cleaved (1:2000, Epitomics, #1476-1), Cyclin D1 (1:10000, Epitomics, #2261-1) and β-actin (1:10000, Sigma, clone AC-15). An anti-rabbit or anti-mouse secondary antibody (Amersham, Piscataway, N.J.) was used at 1:4000 dilution. The Western blotted bands were visualized using ECL procedure according to the manufacturer's instructions (Amersham).

[2] = tested on: STAT3 and pSTAT3 in MDA-MB-231 xenograft tumors; assay: IHC and Western blot of xenograft tumors; assay type: in vivo, mice
Source text: Immunohistochemistry (IHC): Paraffin blocks of the collected tissue were sectioned into 4 μm thickness and stained with H&E as a reference. All slides were subjected to phospho-STAT3 (Y705) IHC with ABC staining method. Rabbit or mouse IgG ABC kit was purchased from Vector Laboratories (Burlingame, Calif., USA) and ABC staining reagents were purchased from Sigma Aldrich (Louis, Mo., USA). PBS was used instead of primary antibody as a negative control.

[3] = tested on: STAT3 and pSTAT3 in MDA-MB-453 and BT474 cells; assay: Transient transfection of STAT3 expression vector and Western blot; assay type: cell-based, human; details: 10 μM, 12 h
Procedure: Transient Transfection of STAT3 Expression Vector: Transient transfection was conducted using Fugene HD reagent (Invitrogen, N.Y., USA) per manufacturer's instructions. Briefly, MDA-MB-453 and BT474 cells were seeded in 100 mm^2 culture dishes and incubated overnight. Culture medium was changed to FBS free media 1 h prior to transfection, and 15 μg STAT3C over-expression vector (#24983, Addgene, Mass., USA), 45 μL Fugene HD together with 879 μL opti-MEM (Invitrogen, N.Y.) was added into each dish. Eight hours after transfection, the media was removed and changed to regular media containing 10% FBS. […] After 12 h treatment, total cell lysates were collected and proceeded to Western blot analysis.

[4] = tested on: MDA-MB-231 and MDA-MB-468 cells; assay: Colony formation assay; assay type: cell-based, human; details: 15 days, starting at 0.625 μM
Procedure: Colony Formation Assay: MDA-MB-468 and MDA-MB-231 cells were seeded in 6-well plates with a density of 800-3000 cells/well, respectively. […] The culture media with the compounds were changed every 72 h. After two weeks, the wells were washed twice with PBS buffer and 2 mL of 0.01% crystal violet staining buffer was added and incubated for 10 min. The wells were then washed with PBS for 5 min for three times, and allowed to dry. Photographs were then taken and the density of the entire culture well area was digitally measured using the GelCount™ instrument (Oxford Optronix, UK). Experiments were performed in triplicate and the density data were analyzed with one-way ANOVA using GraphPad Prizm 6 software. Error bars represent standard deviation.

[5] = tested on: MDA-MB-231 xenograft tumors; assay: MDA-MB-231 xenograft tumor growth in nude mice; assay type: in vivo; details: oral gavage daily for 14 days
[6] = tested on: STAT family, STAT3-dependent genes and JAKs in MDA-MB-468 cells; assay: Western blot analysis, MDA-MB-468 cells; assay type: cell-based, human
[7] = tested on: pSTAT3 nuclear translocation in MDA-MB-231 cells; assay: IL-6 induction of STAT3 phosphorylation and nuclear translocation; assay type: cell-based, human; details: treatment for 6 h, IL-6 1 h
Procedure: IL-6 Induction of STAT3 Phosphorylation and Nuclear Translocation: A total of 5×10^4 MDA-MB-231 cells were seeded into each well of the chamber slides (#154526, Thermo, N.Y.) and cultured overnight. Cells were starved up to 24 h prior to the designated drug treatment. […] After stimulation with IL-6 (50 ng/mL) for 1 h, the culture media were aspirated and followed by DPBS (Gibco, Auckland, NZ) wash twice. Then cells were fixed with 4% paraformaldehyde for 10 min, followed by permeabilization using 100% methanol, blocking buffer for 1 h at room temperature, and incubation with primary antibodies at 4° C. overnight. After incubation with secondary antibody for 1 h, slides were stained with DAPI (Invitrogen, CA) for 5 min, and then anti-fade mounting media added to each chamber. Cells were then analyzed under immunofluorescence microscope with laser-scanning confocal imaging system (Nikon TS100F).

STAT3 = STAT3 (Homo sapiens, UniProt P40763); details: Schust et al. 2006; read-out: IC50, binding to STAT3; cited from earlier work
STAT3, sequence (P40763 whole entry, species assumed): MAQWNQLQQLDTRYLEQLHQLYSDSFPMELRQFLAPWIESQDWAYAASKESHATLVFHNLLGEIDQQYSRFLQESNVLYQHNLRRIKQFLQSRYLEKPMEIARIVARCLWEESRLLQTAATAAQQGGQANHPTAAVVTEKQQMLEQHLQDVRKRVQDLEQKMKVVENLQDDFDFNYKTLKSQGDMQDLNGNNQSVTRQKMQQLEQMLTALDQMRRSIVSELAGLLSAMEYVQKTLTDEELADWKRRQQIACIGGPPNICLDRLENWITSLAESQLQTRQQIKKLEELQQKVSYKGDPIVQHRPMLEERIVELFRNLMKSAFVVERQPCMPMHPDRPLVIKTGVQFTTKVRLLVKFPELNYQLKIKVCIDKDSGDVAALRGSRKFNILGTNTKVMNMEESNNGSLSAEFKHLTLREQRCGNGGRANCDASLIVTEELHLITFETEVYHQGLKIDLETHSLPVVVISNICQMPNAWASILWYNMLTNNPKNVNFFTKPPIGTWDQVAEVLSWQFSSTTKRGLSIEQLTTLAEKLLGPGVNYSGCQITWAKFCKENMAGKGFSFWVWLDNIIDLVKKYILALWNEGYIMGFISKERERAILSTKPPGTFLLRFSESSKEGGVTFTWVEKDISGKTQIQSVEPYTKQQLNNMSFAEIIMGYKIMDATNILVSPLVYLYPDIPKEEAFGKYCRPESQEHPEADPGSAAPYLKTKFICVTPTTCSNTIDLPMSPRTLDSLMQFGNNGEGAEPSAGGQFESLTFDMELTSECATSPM

SMILES: NCCOc1ccc(Cl)cc1C(=O)Nc1ccc([N+](=O)[O-])cc1Cl [HJC0152]
- apoptosis at 1 μM (MDA-MB-231 cells): 8%
- apoptosis at 10 μM (MDA-MB-231 cells): 23%
- JAK1 or pJAK1 (Y1022) ([1]; MDA-MB-231): no changes
- Mcl-1 ([1]; MDA-MB-231): decrease starting from 6 h
- STAT1 and active STAT1 at Y701 or S727 ([1]; MDA-MB-231): no significant changes
- STAT2, STAT4 and STAT6 ([1]; MDA-MB-231): minimal changes
- cleaved caspase 3 ([1]; MDA-MB-231): induced at 12 h
- pSTAT3 at S727 residue ([1]; MDA-MB-231): continuous inhibition to 24 h
- STAT5 ([1]; MDA-MB-231, 5 and 10 μM): transient decrease at 6 h
- pSTAT5 ([1]; MDA-MB-231, 12 and 24 h, 5 and 10 μM): moderate decrease
- pSTAT3 at Y705 residue ([1]; MDA-MB-231, 6 h, recovered at 24 h): significantly decreased
- Bcl-xl protein and cyclin D1 ([1]; MDA-MB-231, 24 h): not altered
- JAK2 and pJAK2 (Y1007 & Y1008) ([1]; MDA-MB-231, from 6 h, 5 μM and 10 μM): apparent down-regulation
- pSTAT3 (Y705) level in xenograft tumors, IHC ([2]; 25 mg/kg oral): significant effect on reducing pSTAT3 level
- STAT3 and pSTAT3 (Y705 and S727) in tumor lysates, Western blot ([2]; oral gavage 14 days): decreased
- STAT3 and pSTAT3 levels after forced expression of STAT3 [3]: significantly decreased
- colony formation [4]: significant suppression of colony formation
- reduction in tumor growth, 25 mg/kg [5]: approximately 80%
- JAK3 ([6]; MDA-MB-468): minimal alterations
- STAT1 ([6]; MDA-MB-468): minimal changes
- cleaved PARP1 ([6]; MDA-MB-468): induced from 6 h
- JAK2 and pJAK2 ([6]; MDA-MB-468, 12 h, recovered at 24 h): transient down-regulation
- JAK1 protein ([6]; MDA-MB-468, 12 h and 24 h): decreased level
- Bcl-2 and cyclin D1 ([6]; MDA-MB-468, from 6 h): decreased level
- pSTAT1 at Y701 and S727 ([6]; MDA-MB-468, from 6 h, 10 μM): down-regulation
- STAT5 and pSTAT5 (Y694) ([6]; MDA-MB-468, from 12 h, 5 μM): decreased level
- STAT3 and pSTAT3 ([6]; MDA-MB-468, starting at 3 h): down-regulation
- IL-6 induced nuclear translocation of pSTAT3 [7]: blocked

SMILES: O=[N+]([O-])c1ccc2c(c1)S(=O)(=O)C=C2 [Stattic]
- IC50 (STAT3): 5.1 µM
